Laboratory results reported in ChEMBL document CHEMBL1158802, “Bioactive constituents of the leaves of Phyllanthus polyphyllus var. siamensis” (J Nat Prod, 2005).
Converted amounts (≈) assume the structure as drawn. The source made the active and inactive calls. No cut-off for these calls is given here.

How the values were obtained:
KB = assay: Cytotoxicity against human KB cells by colorimetric method; type: functional, cell-based
[1] = Cytotoxicity against human BC cells by colorimetric method; type: functional, cell-based
NCI-H187 = assay: Cytotoxicity against human NCI-H187 cells by colorimetric method; type: functional, cell-based
Vero = assay: Cytotoxicity against african green monkey Vero cells by colorimetric method; type: cell-based; settings: Chlorocebus sabaeus

Row | Structure (SMILES) | IC50 (KB) [µg/mL] | IC50 [1] [µg/mL] | IC50 (NCI-H187) [µg/mL] | IC50 (Vero) [µg/mL] | Activity (KB) | Activity (NCI-H187)
1 | CC1(C)CC[C@]2(C(=O)O)CC[C@]3(C)C(=CC[C@@H]4[C@@]5(C)CC[C@H](O)[C@@](C)(CO)[C@@H]5CC[C@]43C)[C@@H]2C1 [HEDERAGENIN] | > 5 | > 5 | > 5 | – | – | –
2 | CC(=O)O[C@H]1CO[C@@H](O[C@H]2CC[C@@]3(C)[C@@H](CC[C@]4(C)[C@@H]3CC=C3[C@@H]5CC(C)(C)CC[C@]5(C(=O)O)CC[C@]34C)[C@]2(C)CO)[C@H](O)[C@H]1O | – | 3.6 (≈ 5.57 µM) | – | 10.7 (≈ 16.5 µM) | inactive | inactive
3 | CC(=O)O[C@@H]1[C@@H](OC(C)=O)[C@H](O[C@H]2CC[C@]3(C)[C@H]4CC=C5[C@@H]6CC(C)(C)CC[C@]6(C(=O)O)CC[C@@]5(C)[C@]4(C)CC[C@H]3C2(C)C)OC[C@@H]1OC(C)=O | – | 3.3 (≈ 4.62 µM) | – | 3.2 (≈ 4.48 µM) | inactive | inactive
4 | O=C1C=C2C=C[C@@H](O)C[C@H]2O1 [MENISDAURILIDE] | > 5 | > 5 | > 5 | – | – | –
5 | COc1cc(C[C@@H](CO)[C@H](CO)Cc2ccc(O)c(OC)c2)ccc1O [(+)-SECOISOLARICIRESINOL] | > 5 | > 5 | > 5 | – | – | –
6 | Cc1c2ccncc2c(C)c2c1[nH]c1ccccc12 [ELLIPTECINE] | 0.26 (≈ 1.06 µM) | 0.36 (≈ 1.46 µM) | 0.32 (≈ 1.3 µM) | – | – | –
7 | CC(=O)O[C@@H]1[C@@H](O)[C@H](O[C@H]2CC[C@@]3(C)[C@@H](CC[C@]4(C)[C@@H]3CC=C3[C@@H]5CC(C)(C)CC[C@]5(C(=O)O)CC[C@]34C)[C@]2(C)CO)OC[C@@H]1O | – | – | – | – | inactive | inactive
8 | CC(=O)OC[C@@]1(C)[C@@H]2CC[C@]3(C)[C@H](CC=C4[C@@H]5CC(C)(C)CC[C@]5(C(=O)O)CC[C@]43C)[C@@]2(C)CC[C@@H]1O[C@@H]1OC[C@H](OC(C)=O)[C@H](OC(C)=O)[C@H]1OC(C)=O | 3.7 (≈ 4.79 µM) | 3.6 (≈ 4.66 µM) | 2.2 (≈ 2.85 µM) | – | – | –
9 | CC(=O)O[C@H]1[C@H](O[C@H]2CC[C@@]3(C)[C@@H](CC[C@]4(C)[C@@H]3CC=C3[C@@H]5CC(C)(C)CC[C@]5(C(=O)O)CC[C@]34C)[C@]2(C)CO)OC[C@H](O)[C@@H]1O | – | – | – | – | – | inactive
10 | CC1(C)CC[C@]2(C(=O)O)CC[C@]3(C)C(=CC[C@@H]4[C@@]5(C)CC[C@H](O[C@@H]6OC[C@H](O)[C@H](O)[C@H]6O)[C@@](C)(CO)[C@@H]5CC[C@]43C)[C@@H]2C1 | – | – | – | – | inactive | inactive
11 | OC[C@H](Cc1ccc2c(c1)OCO2)[C@H](CO)Cc1ccc2c(c1)OCO2 [DIHYDROCUBEBIN] | > 5 | > 5 | > 5 | – | – | –
12 | CC1(C)CC[C@]2(C(=O)O)CC[C@]3(C)C(=CC[C@@H]4[C@@]5(C)CC[C@H](O[C@@H]6OC[C@H](O)[C@H](O)[C@H]6O)C(C)(C)[C@@H]5CC[C@]43C)[C@@H]2C1 | – | 1.7 (≈ 2.89 µM) | 3.2 (≈ 5.43 µM) | 2.8 (≈ 4.76 µM) | inactive | –
